Results as given in patent US9889180B2, “Method of treating cancer” (Agency for Science, Technology and Research, priority 2012, dated 2018).

Columns and labels:
[1] = test system: IFNGR1 expression and IFN-γ-STAT1 signaling; assay: qRT-PCR and western blot of IFNGR1 expression and IFN-γ signaling in DU145 cells; type: cell-based, human
Method: All cells were maintained at 37° C. with 5% CO2. Cells were grown until they were 80% confluent before they are treated the respective drugs. For drug treatment, DZNep and GSK126 were purchased from Pharmaron Inc. (Beijing, China), GSK343 was kindly provided by Chemical Probes of University of Toronto, 5′Aza, TSA and human recombinant IFN-γ was purchased from Sigma. For rescue experiment using IFNGR1 blocking antibody, the neutralizing antibody that specifically targets IFNGR1 (anti-CD119, GIR-208, BD Pharmingen) was added to the medium 4 hour prior to the addition of DZNep or/and IFN-γ. Total RNA was isolated by using Trizol (Invitrogen) and purified with the RNeasy Mini Kit (Qiagen). The microarray hybridization was performed using the Illumina Gene Expression Sentrix BeadChip HumanRef-8_V3, and data analysis was performed by GeneSpring software from Agilent Technologies as described previously. The analyzed gene sets by GeneSpring were next subjected to Ingenuity Pathway Analysis (IPA) for gene ontology (GO) analysis. Reverse transcription and quantitative PCR assays were performed using High Capacity cDNA Archive kit and KAPA SyBr Fast qPCR kit (KAPA biosystems). For quantification of mRNA levels, 18S level was used as an internal control. All reactions were analyzed in an Applied Biosystems PRISM 7500 Fast Real-Time PCR system in 96-well plate format. Western Blotting was performed as described previously. Briefly, Cells were scraped, collected, and lysed in RIPA buffer. To release histones from chromatin, cell lysates were further sonicated for 15 sec using a XL2000 Microson Ultrasonic Processor (Misonix). Equal amounts of protein (30 μg) were separated on SDS-polyacrylamide gels and transferred to PVDF membranes. The blots were probed with antibodies against EED (07-368), SUZ12 (07-379), trimethylated H3-K27 (07-449), Acetyl-Histone H3 (06-599), which were purchased from Upstate Biotechnology. IFNGR1 (GIR-94) and anti-IFI16 (1G7) were purchased from Santa Cruz. EZH2 phospho S21 (00388) was purchased from Bethyl Laboratories. EZH2 (AC22), P110α PI3K, p-AKT (T308), p-AKT (S473), pSTAT1Y701, total STAT1, Histone H3 (3H1), Beclin-1 and cleaved PARP were purchased from Cell Signaling. Myc and Actin were purchased from Roche Applied Science and Sigma-Aldrich, respectively.

solid tumor cells = conditions: very recent report; cited from earlier work
DU145 cells [2] = assay: FACS sub-G1 DNA analysis (apoptosis) in DU145 cells; type: cell-based, human; conditions: for apoptotic effect (sub-G1) / apoptosis (sub-G1) with other epigenetic compounds: in combination with IFN-γ; for apoptotic effect (sub-G1): treated for either 3 days or 10 days; for apoptosis (sub-G1) with other epigenetic compounds: compared with DZNep
Method: For the assessment of cell death, cells were harvested in 70% ethanol. Fixed cells were stained with Propidium Iodide (P.I) (50 μg/mL). The stained cells were analyzed for DNA content by FACS in a FACSCalibur (Becton Dickinson Instrument). % of cell death was defined as the sub-G1 population quantified using the CellQuest software (Becton Dickinson). The percentage of dead cells or sub-G1 cells was calculated by comparing the results of each experiment to the results from DMSO-treated cells. Each assay was repeated a minimum of three times, with results reported as means+s.e.m.

IFNGR1 promoter = assay: ChIP analysis of EZH2 and H3K27me3 enrichments at IFNGR1 in DU145 cells; type: cell-based, human; conditions: GSK126 (5 μM), 3 days, compared with DZNep
Method: ChIP assays were performed as described previously. […] The immunoprecipitated DNA was quantified by quantitative real-time PCR using KAPA SyBr Fast qPCR kit (KAPA biosystems) with the specific ChIP primers as listed in the Table 4. Quantification of binding to the promoter was defined as the percentage of the whole cell lysate input DNA. The fold enrichment was derived by normalizing the specific antibody enriched against the IgG-enriched chromatin. CNR1 serves a positive control and Actin is a negative control. Significance of target genes was assessed relative to Actin level.

EZH2/PRC2 and H3K27me3 = target: T1, EZH2/PRC2 and H3K27me3 (Homo sapiens, UniProt Q15910); assay: Western blot of PRC2 proteins and H3K27me3 in DU145 cells; type: cell-based
T1 construct: endogenous in cells; host or cells: DU145 (named by the earlier reading of the assay)
Method: Western Blotting was performed as described previously. Briefly, Cells were scraped, collected, and lysed in RIPA buffer. To release histones from chromatin, cell lysates were further sonicated for 15 sec using a XL2000 Microson Ultrasonic Processor (Misonix). Equal amounts of protein (30 μg) were separated on SDS-polyacrylamide gels and transferred to PVDF membranes. The blots were probed with antibodies against EED (07-368), SUZ12 (07-379), trimethylated H3-K27 (07-449), Acetyl-Histone H3 (06-599), which were purchased from Upstate Biotechnology. IFNGR1 (GIR-94) and anti-IFI16 (1G7) were purchased from Santa Cruz. EZH2 phospho S21 (00388) was purchased from Bethyl Laboratories. EZH2 (AC22), P110α PI3K, p-AKT (T308), p-AKT (S473), pSTAT1Y701, total STAT1, Histone H3 (3H1), Beclin-1 and cleaved PARP were purchased from Cell Signaling. Myc and Actin were purchased from Roche Applied Science and Sigma-Aldrich, respectively.

LNCaP cells = assay: Cell proliferation assay (CellTiter-Glo) in LNCaP cells; type: cell-based, human; conditions: siRNA knockdown combined with IFN-γ treatment
Method: (§1) The optimal cell seeding was determined empirically for all cell lines by examining the growth of a wide range of seeding densities in a 96-well format to identify conditions that permitted proliferation for 6 days. Cells were then plated at the optimal seeding density 24 h before siRNA or drug treatment in triplicate. Plates were incubated for 6 days at 37° C. in 5% CO2. Cells were then lysed with CellTiter-Glo (CTG) (Promega) and chemiluminescent signal was detected with a microplate reader (TECAN). In addition, an untreated plate of cells was harvested at the time of drug or siRNA addition (T0) to quantify the starting number of cells. CTG values obtained after the 6 day treatment were expressed as percentages of the T0 value and plotted against time of treatment. Cells received 1-5 μM of DZNep, 25 ng/mL of IFN-γ and 0.1-2.5 μM of GSK343 unless stated otherwise for 72-96 h.

DU145 cells [3] = assay: Cell proliferation assay (CellTiter-Glo) in DU145 cells; type: cell-based, human; conditions: siRNA knockdown combined with IFN-γ treatment
Method: as §1

DU145 xenograft tumor = DU145 xenograft tumor growth in male athymic nude mice; type: in vivo; conditions: IFN-γ 1×10^7 IU/kg i.p. daily, DZNep 1 mg/kg s.c. every alternating day, 38 days
Method: For in vivo evaluation of DZNep and IFN-γ treatment, the experiments were conducted in compliance with animal protocol approved by the ASTAR-Biopolis Institutional Animal Care and Use Committee (IACUC) of Singapore. DU145 cells were subcutaneously injected into 6-8 week male nude mice at 5×10^6 cells, followed by treatment with vehicle, IFN-γ (1×10^7 IU/kg) alone, DZNep (1 mg/kg) alone or combined DZNep (1 mg/kg) with IFN-γ (1×10^7IU/kg). IFN-γ was administered by intraperitoneal injection daily and DZNep by subcutaneous injection on every alternating day over a duration of 38 days after average tumor size reached around 150 mm^3. Tumors were measured by vernier calliper at least twice per week and tumors volume was calculated with formula: V=W*W*L/2. Each xenograft treatment arm comprised of 5-8 mice. Differences among groups and treatments were determined by ANOVA followed by t tests. (***p<0.001, n.s=not significant) Error bars represent means±s.e.m

T1 sequence (Q15910 whole entry): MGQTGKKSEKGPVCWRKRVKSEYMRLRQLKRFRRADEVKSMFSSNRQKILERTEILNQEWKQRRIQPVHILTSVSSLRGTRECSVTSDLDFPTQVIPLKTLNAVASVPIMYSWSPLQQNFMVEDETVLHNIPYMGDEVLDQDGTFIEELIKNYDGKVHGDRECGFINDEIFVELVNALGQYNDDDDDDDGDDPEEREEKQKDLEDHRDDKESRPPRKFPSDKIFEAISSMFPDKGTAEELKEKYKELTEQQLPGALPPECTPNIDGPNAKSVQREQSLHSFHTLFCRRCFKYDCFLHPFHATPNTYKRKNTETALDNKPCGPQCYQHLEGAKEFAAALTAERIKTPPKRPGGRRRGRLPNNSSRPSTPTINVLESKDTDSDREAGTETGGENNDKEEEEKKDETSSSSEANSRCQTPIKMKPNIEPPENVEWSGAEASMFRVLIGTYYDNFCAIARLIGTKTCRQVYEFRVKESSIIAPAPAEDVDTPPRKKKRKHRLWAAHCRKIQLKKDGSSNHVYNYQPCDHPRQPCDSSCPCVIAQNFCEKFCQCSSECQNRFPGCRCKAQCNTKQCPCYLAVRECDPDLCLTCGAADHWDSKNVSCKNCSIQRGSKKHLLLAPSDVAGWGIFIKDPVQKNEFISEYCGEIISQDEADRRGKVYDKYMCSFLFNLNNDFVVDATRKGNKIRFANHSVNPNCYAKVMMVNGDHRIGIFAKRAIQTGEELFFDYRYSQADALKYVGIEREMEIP
T1 sequence (O75530 whole entry partner): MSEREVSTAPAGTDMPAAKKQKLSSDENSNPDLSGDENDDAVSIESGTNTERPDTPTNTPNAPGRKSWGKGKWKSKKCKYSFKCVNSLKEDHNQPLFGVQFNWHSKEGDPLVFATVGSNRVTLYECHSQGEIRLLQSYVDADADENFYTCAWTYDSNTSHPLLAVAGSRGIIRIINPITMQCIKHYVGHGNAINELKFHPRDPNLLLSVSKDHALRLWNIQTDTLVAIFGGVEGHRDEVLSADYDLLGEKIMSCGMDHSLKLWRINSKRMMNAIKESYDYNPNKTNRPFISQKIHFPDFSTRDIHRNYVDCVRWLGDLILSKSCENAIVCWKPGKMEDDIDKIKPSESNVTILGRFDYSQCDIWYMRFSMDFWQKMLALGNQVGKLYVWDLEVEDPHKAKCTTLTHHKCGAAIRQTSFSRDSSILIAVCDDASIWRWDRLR
T1 sequence (Q15022 whole entry partner): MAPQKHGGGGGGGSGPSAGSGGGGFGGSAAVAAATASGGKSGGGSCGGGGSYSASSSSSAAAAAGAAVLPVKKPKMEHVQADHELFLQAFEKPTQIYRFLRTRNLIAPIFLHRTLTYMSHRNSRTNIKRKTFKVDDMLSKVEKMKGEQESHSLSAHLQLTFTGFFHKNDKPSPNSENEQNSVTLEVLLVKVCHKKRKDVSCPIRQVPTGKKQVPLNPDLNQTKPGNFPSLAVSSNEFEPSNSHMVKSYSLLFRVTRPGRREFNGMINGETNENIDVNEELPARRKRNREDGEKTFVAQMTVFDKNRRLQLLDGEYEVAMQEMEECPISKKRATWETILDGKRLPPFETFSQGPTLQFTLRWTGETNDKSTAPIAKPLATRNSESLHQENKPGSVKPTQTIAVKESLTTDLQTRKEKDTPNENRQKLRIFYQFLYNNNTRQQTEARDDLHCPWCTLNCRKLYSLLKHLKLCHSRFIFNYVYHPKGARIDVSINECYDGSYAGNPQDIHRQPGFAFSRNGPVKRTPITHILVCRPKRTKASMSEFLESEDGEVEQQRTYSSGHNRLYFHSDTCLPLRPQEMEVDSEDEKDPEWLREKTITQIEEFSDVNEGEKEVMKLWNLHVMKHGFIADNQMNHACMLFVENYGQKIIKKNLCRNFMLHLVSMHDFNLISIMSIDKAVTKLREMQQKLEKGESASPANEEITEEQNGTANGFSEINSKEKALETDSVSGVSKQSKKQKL

In the case of `CC[C@H](C)n1cc(C)c2c(C(=O)NCc3c(C)cc(C)[nH]c3=O)cc(-c3ccc(N4CCNCC4)nc3)cc21` [GSK126, N-[(4,6-dimethyl-2-oxo-1,2-dihydro-3-pyridinyl)methyl]-3-methyl-1-((1S)-1-methylpropyl)-6-[6-(1-piperazinyl)-3-pyridinyl]-1H-indole-4-carboxamide], the IFNGR1 expression ([1]; GSK126 up to 10 μM for 10 days) is given as “modest induction of IFNGR1”, the “ability to induce the loss of cell viability” value (solid tumor cells) is given as “unable to do so” and the “apoptotic effect (sub-G1)” value (DU145 cells [2]) is given as “failed to see an apoptotic effect”. The “H3K27me3 enrichment at the IFNGR1 gene promoter” value (IFNGR1 promoter) was “more efficiently depleted H3K27me3”.

In the case of `CCCc1cc(C)[nH]c(=O)c1CNC(=O)c1cc(-c2ccnc(N3CCN(C)CC3)c2)cc2c1cnn2C(C)C` [GSK343, N-[(6-methyl-2-oxo-4-propyl-1,2-dihydropyridin-3-yl)methyl]-6-[2-(4-methylpiperazin-1-yl)pyridin-4-yl]-1-(propan-2-yl)-1H-indazole-4-carboxamide], the “depletion of H3K27me3” value (EZH2/PRC2 and H3K27me3; GSK343 at as low as 0.1 μM, 3 days) is reported as “efficient depletion of H3K27me3”, the IFNGR1 expression ([1]; GSK343 up to 2.5 μM for 3 days) is reported as “did not show an induction of IFNGR1” and the “apoptotic effect (sub-G1)” value (DU145 cells [2]) is reported as “failed to see an apoptotic effect”.

For `O=C(CCCCCCC(=O)Nc1ccccc1)NO` [SAHA], the “apoptosis (sub-G1) with other epigenetic compounds” value (DU145 cells [2]) was “did not give rise to such a response”.

With `CC(/C=C/C(=O)NO)=C\[C@@H](C)C(=O)c1ccc(N(C)C)cc1` [TSA] the “apoptosis (sub-G1) with other epigenetic compounds” value (DU145 cells [2]) was “did not give rise to such a response”.

For “MYC knockdown: MYC siRNA: 5′-UCCUGAGACAGAUCAGCAACAACCG-3′ (SEQ ID NO:2) (other strand not given here)”, the “EZH2 expression after knockdown” value (EZH2/PRC2 and H3K27me3) was “decreased EZH2 expression”, the “cell growth after knockdown” value (LNCaP cells) was “no such an effect was seen” and the “apoptosis (sub-G1) after knockdown” value (DU145 cells [2]; siRNA knockdown in combination with IFN-γ) was “apoptosis induction”. For the same molecule, the “cell growth after knockdown” value (DU145 cells [3]) was “remarkable synergy in cell growth regression”.

B1: IFN-γ: human recombinant IFN-γ purchased from Sigma; enhancer of interferon-gamma receptor activity (protein)
chain: QDPYVKEAENLKKYFNAGHSDVADNGTLFLGILKNWKEESDRKIMQSQIVSFYFKLFKNFKDDQSIQKSVETIKEDMNVKFFNSNKKKRDDFEKLTNYSVTDLNVQRKAIHELIQVMAELSPAAKTGKRKRSQMLFRGRRASQ
With B1 the xenograft tumor growth (DU145 xenograft tumor) was “slowed down the tumor growth”.
